Data as given in patent US20250214986A1, “P2X3 INHIBITOR COMPOUND, SALT THEREOF, POLYMORPH THEREOF AND USE THEREOF” (HUMANWELL HEATHCARE (GROUP) CO., LTD., priority 2022, published 2025).

Key:
[1] = Pharmacokinetic assay in mice; type: in vivo, male ICR mice; details: male, ICR, mouse, plasma, mice, oral intragastric administration, 10 mg/kg
Experimental: Pharmacokinetic assay in mice was performed, wherein the mice used were male ICR mice weighing 20-25 g and fasted overnight. 3 mice were taken and given the compound by oral intragastric administration at 10 mg/kg, and blood was collected before administration and at 15 min, 30 min, 1 h, 2 h, 4 h, 8 h, and 24 h after administration. The blood samples were centrifuged at 6800 g at 2-8° C. for 6 min, and plasma was collected and stored at −80° C. […] The mixture was vortexed for 1 min and then centrifuged at 13000 rpm at 4° C. for 10 min. The supernatant was taken, and 3 times its amount of water was added for mixing. A proper amount of the resulting mixture was taken for LC-MS/MS analysis. The major pharmacokinetic parameters were analyzed using a non-compartmental model in the WinNonlin 7.0 software.

[2] = system: citric acid/histamine-stimulated cough model; assay: Cough efficacy assay of histamine/citric acid in guinea pigs; type: in vivo; details: histamine/citric acid nebulization, intranasal instillation
Experimental: (§1) Before enrollment, the animals were acclimatized for 3-7 days. Once their body weight reached the standard (300-400 g), they were numbered and randomly grouped. 0.25-24 h before the start of the cough assessment, the compound or excipient was administered to the guinea pigs via intranasal instillation. The dose range for the administration of the test substance was 0.17-1.5 mg/kg. During the cough assessment, after the animals were acclimated in a whole-body plethysmography box, they were given histamine nebulization, followed by citric acid nebulization. The number of coughs and the cough latency of the animals were recorded within 22 min from the start of the histamine nebulization until the end of the observation period. For the statistics of experimental data, the one-way ANOVA method was used to analyze and compare the data of the groups. Statistical analysis results with p<0.05 were considered to indicate significant differences. Pairwise comparisons were performed using the t-test method to assess differences.

[3] = system: citric acid/ATP-stimulated cough model; assay: Cough efficacy assay of ATP/citric acid in guinea pigs; type: in vivo; details: ATP/citric acid nebulization, intranasal instillation
Experimental: as §1, with “ATP” for “histamine”, “and after a few minutes, they were given” for “followed by”, “15” for “22”, “citric acid nebulization. The” for “histamine nebulization until the end of the observation period. For the statistics of experimental data, the”

[4] = Hygroscopicity by dynamic vapor sorption (DVS); type: physicochemical
Experimental: Dynamic vapor sorption (DVS) curves were acquired on a DVS IntrInsic from Surface Measurement Systems (SMS). The relative humidity at 25° C. was corrected with the deliquescence points of LiCl, Mg(NO3)2, and KCl.
Starting at 0% RH, the test acquired the percentage changes in mass of the samples when the humidity changed (0% RH to 95% RH to 0% RH) at a constant temperature of 25° C.

[5] = Dynamic solubility experiment at 37° C.; type: physicochemical
Experimental: In the test, the purity, dynamic solubility and stability were tested using an Agilent 1260 high-performance liquid chromatograph, the molar ratio of salt-forming ions was tested using ion chromatography, and the analytical conditions are shown in Tables A-4 and A-5 below.
Solids at a feeding concentration of 10 mg/mL (calculated based on free base) were rotationally mixed with corresponding vehicles at 37° C. […] After sampling at each time point, the samples were centrifuged (at 10000 rpm) and filtered (through a 0.45 μm PTFE filter head). The HPLC concentrations and pH values of the filtrates were determined.
100.2 mg of NaCl and 50.3 mg of Triton X-100 were weighed into a 50 mL volumetric flask and then completely dissolved by addition of purified water. 816 μL of 1 M hydrochloric acid was added, and the pH was adjusted to 1.8 with 1 M hydrochloric acid or 1 M NaOH solution. The mixed solution was brought to the volume by addition of purified water.
170.5 mg of anhydrous NaH2PO4, 22.2 mg of NaOH, and 310.9 mg of NaCl were weighed into a 50 mL volumetric flask and then completely dissolved by addition of purified water. The pH was adjusted to 6.5 with 1 M hydrochloric acid or 1 M NaOH solution. The mixed solution was brought to the volume by addition of purified water. Subsequently, 55.1 mg of SIF powder was weighed into a 25 mL volumetric flask and completely dissolved with the above solution, and the mixed solution was brought to the volume.
0.21 mL of glacial acetic acid, 101.6 mg of NaOH, and 295.4 mg of NaCl were added into a 25 mL volumetric flask and then completely dissolved by addition of about 20 mL of purified water. The pH was adjusted to 5.0 with 1 M hydrochloric acid or 1 M NaOH solution. The mixed solution was brought to the volume by addition of purified water, and then 280.8 mg of SIF powder was weighed into the flask and completely dissolved.

[6] = Solid state stability (XRPD and HPLC); type: physicochemical
Experimental: In the test, the purity, dynamic solubility and stability were tested using an Agilent 1260 high-performance liquid chromatograph, the molar ratio of salt-forming ions was tested using ion chromatography, and the analytical conditions are shown in Tables A-4 and A-5 below. [table]

[7] = Competitive suspension tests of free base crystalline forms A/B; type: physicochemical
Experimental: In order to confirm the thermodynamic transformation relationship between the anhydrous free base crystalline forms A and B under different temperature conditions, competitive suspension tests in n-heptane and toluene at room temperature and 50° C. were set up.

[8] = 25° C./60% RH/uncovered, 1 month
[9] = 25° C./60% RH/uncovered, 1 week
[10] = 40° C./75% RH/uncovered, 1 month
[11] = 40° C./75% RH/uncovered, 1 week

Cc1cnc(-c2cc(O[C@@H]3CCOC3)cc(C(=O)N[C@H](C)c3cnc(C(F)(F)F)nc3)c2)s1 [Control compound 1, reference compound]
AUC(0-t) [1]: 5200 ng·h/mL | Cmax [1]: 1250 ng/mL | Tmax [1]: 0.5 h | half-life ([1]; read-out: T½ (converted)): 2.41 h | Cough inhibition rate vs. vehicle (%) [2]: 57.1% | Mean number of coughs within 15 min [2]: 11.4 | Cough inhibition rate vs. vehicle (%) [3]: 59.1% | Mean number of coughs within 15 min [3]: 8.1

Cc1cnc(-c2cc(O[C@@H](C)[C@@H](C)O)cc(C(=O)N[C@H](C)c3cnc(C(F)(F)F)nc3)c2F)s1 [Crystalline form A of p-toluenesulfonate]
crystalline form after DVS test ([4]; 0% RH to 95% RH to 0% RH, 25° C.): remained unchanged | vapor sorption ([4]; 25° C./80% RH): about 0.12% | hygroscopicity ([4]; DVS, 25° C./80% RH): almost no hygroscopicity | Crystalline form change ([5]; FaSSIF, 1 h): Yes^b′ (transformed to free base crystalline form B + additional diffraction peaks) | S: solubility ([5]; FaSSIF, 1 h): 28 µg/mL | pH of filtrate ([5]; FaSSIF, 1 h): 2.6 | Crystalline form change ([5]; FaSSIF, 4 h): Yes^a′ | S: solubility ([5]; FaSSIF, 4 h): 13 µg/mL | pH of filtrate ([5]; FaSSIF, 4 h): 2.6 | Crystalline form change ([5]; FaSSIF, 24 h): Yes^a′ | S: solubility ([5]; FaSSIF, 24 h): 6 µg/mL | pH of filtrate ([5]; FaSSIF, 24 h): 2.6 | Crystalline form change ([5]; FeSSIF, 1 h): Yes^b′ (transformed to free base crystalline form B + additional diffraction peaks) | S: solubility ([5]; FeSSIF, 1 h): 95 µg/mL | pH of filtrate ([5]; FeSSIF, 1 h): 4.8 | Crystalline form change ([5]; FeSSIF, 4 h): Yes^b (transformed to free base crystalline form B) | S: solubility ([5]; FeSSIF, 4 h): 81 µg/mL | pH of filtrate ([5]; FeSSIF, 4 h): 4.8 | Crystalline form change ([5]; FeSSIF, 24 h): Yes^a′ | S: solubility ([5]; FeSSIF, 24 h): 28 µg/mL | pH of filtrate ([5]; FeSSIF, 24 h): 4.8 | Crystalline form change ([5]; H2O, 1 h): Yes^a | S: solubility ([5]; H2O, 1 h): 6 µg/mL | pH of filtrate ([5]; H2O, 1 h): 1.8 | Crystalline form change ([5]; H2O, 4 h): Yes^a | S: solubility ([5]; H2O, 4 h): 5 µg/mL | pH of filtrate ([5]; H2O, 4 h): 1.8 | Crystalline form change ([5]; H2O, 24 h): Yes^a | S: solubility ([5]; H2O, 24 h): 5 µg/mL | pH of filtrate ([5]; H2O, 24 h): 1.8 | Crystalline form change ([5]; SGF, 1 h): Yes^b′ (transformed to free base crystalline form B + additional diffraction peaks) | S: solubility ([5]; SGF, 1 h): 37 µg/mL | pH of filtrate ([5]; SGF, 1 h): 1.5 | Crystalline form change ([5]; SGF, 4 h): Yes^a+b′ | S: solubility ([5]; SGF, 4 h): 33 µg/mL | pH of filtrate ([5]; SGF, 4 h): 1.5 | Crystalline form change ([5]; SGF, 24 h): Yes^a′ | S: solubility ([5]; SGF, 24 h): 12 µg/mL | pH of filtrate ([5]; SGF, 24 h): 1.5 | 1-hour solubility in the three biological vehicles other than H2O compared with the other forms ([5]; SGF, FaSSIF, FeSSIF, 1 h): highest 1-hour solubility | HPLC Purity (area %) [6, 8]: 99.92 area % | HPLC purity Relative to starting (%) [6, 8]: 100.00% | HPLC Purity (area %) [6, 9]: 99.92 area % | HPLC purity Relative to starting (%) [6, 9]: 100.00% | HPLC Purity (area %) [6, 10]: 99.92 area % | HPLC purity Relative to starting (%) [6, 10]: 100.00% | HPLC Purity (area %) [6, 11]: 99.92 area % | HPLC purity Relative to starting (%) [6, 11]: 100.00% | change of HPLC purity after placement under the corresponding conditions ([6]; 60° C. sealed 1 day, 25° C./60% RH and 40° C./75% RH uncovered 1 week/1 month): no significant change | HPLC Purity (area %) ([6]; 60° C./sealed, 1 day): 99.92 area % | HPLC purity Relative to starting (%) ([6]; 60° C./sealed, 1 day): 100.00% | HPLC Purity (area %) ([6]; Starting): 99.92 area %

Cc1cnc(-c2cc(O[C@@H](C)[C@@H](C)O)cc(C(=O)N[C@H](C)c3cnc(C(F)(F)F)nc3)c2F)s1 [Free base crystalline forms A + B]
Resulting crystalline form after competitive suspension ([7]; Toluene, 50° C., 2 d): Free base crystalline form A | Resulting crystalline form after competitive suspension ([7]; Toluene, RT, 5 d): Free base crystalline form A | Resulting crystalline form after competitive suspension ([7]; n-Heptane, 50° C., 2 d): Free base crystalline form A | Resulting crystalline form after competitive suspension ([7]; n-Heptane, RT, 42 d): Free base crystalline form A
